Like-named read-outs stand apart in the source and are kept apart here.
Assays:
[1] = test system: garden cress; conditions: cited from earlier work
[2] = target: T1, Trx-1/TrxR (Homo sapiens, UniProt P10599+Q16881); conditions: read-out: IC 50 as Trx-1/TrxR inhibitor; cited from earlier work
T1 sequence (P10599 1-105): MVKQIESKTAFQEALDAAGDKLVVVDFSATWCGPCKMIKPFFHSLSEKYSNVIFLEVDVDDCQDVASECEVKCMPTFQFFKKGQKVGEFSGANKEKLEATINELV
T1 sequence (Q16881 151-649 limits assumed): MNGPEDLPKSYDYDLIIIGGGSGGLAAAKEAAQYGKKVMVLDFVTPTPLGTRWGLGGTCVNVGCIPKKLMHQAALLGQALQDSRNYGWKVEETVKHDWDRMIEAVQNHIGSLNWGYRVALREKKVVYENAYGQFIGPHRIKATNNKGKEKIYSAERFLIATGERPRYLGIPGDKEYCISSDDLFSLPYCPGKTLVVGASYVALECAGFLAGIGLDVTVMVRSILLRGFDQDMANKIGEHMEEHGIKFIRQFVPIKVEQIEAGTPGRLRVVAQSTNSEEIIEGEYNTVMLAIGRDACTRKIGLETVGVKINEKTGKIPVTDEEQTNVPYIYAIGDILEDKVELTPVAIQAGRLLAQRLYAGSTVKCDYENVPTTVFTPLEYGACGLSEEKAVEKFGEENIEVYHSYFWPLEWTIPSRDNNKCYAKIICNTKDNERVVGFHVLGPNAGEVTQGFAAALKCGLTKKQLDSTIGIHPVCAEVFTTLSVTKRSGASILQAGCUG

[3] = test system: 60 cell line panel; conditions: read-out: average GI 50; cited from earlier work
[4] = target: thioredoxin reductases (TrxR); conditions: read-out: K; (thioredoxin reductase inhibition); cited from earlier work
[5] = target: T2, Trx-1/TrxR (Homo sapiens, UniProt P10599+Q16881); assay: Trx-1/TrxR-dependent insulin reducing assay; type: biochemical; conditions: calculated from 5 concentrations (0.1 to 50 μM)
T2 construct: Thioredoxin reductase was purified from human placenta as previously described; made in house
T2 sequence (P10599 1-105): T1 sequence (P10599 1-105)
T2 sequence (Q16881 1-499 isoform Q16881-5): T1 sequence (Q16881 151-649 limits assumed)
Procedure: Thioredoxin reductase was purified from human placenta as previously described (Oblong, J.E.; Gasdaska, P.Y.; Sherrill, K.; Powis,G. Biochemistry 1993, 32, 7271) and recombinant human Trx-1 was prepared as previously described (Gasdaska, P.Y.; Oblong, J.E.; Cotgreave, I.A.; Powis,G. Biochem.Biophys.Acta 1994 ,1218 ,292). TrxR and Trx-1/TrxR activities were measured spectrophotometrically using previously published microtiter plate colorimetric assays, based on the increase in absorbance at 405 nm which occurs as dithionitrobenzoic acid (DTNB) is reduced by the enzyme-mediated transfer of reducing equivalents from NADPH (Gasdaska et al., Biochem.Biophys.Acta 1994 ,1218,292). Trx-1/TrxR-dependent insulin reducing activity was measured in an incubation with a final volume of 60 μL containing 100 mM HEPES buffer, pH 7.2,5 mM EDTA (HE buffer),1 mM NADPH, […],0.8 μM Trx-1 and 2.5 mg/mL bovine insulin. Incubations were for 30 min at 37 ° C. in flat-bottom 96-well microtiter plates. The reaction was stopped by the addition of 100 μL of 6 M guanidine-HC1, 50 mM Tris, pH 8.0, and 10 mM DTNB, and the absorbance measured to 405 nm. TrxR activity was measured in a final incubation volume of 60 μL containing HE buffer, 10 mM DTNB, 1.0 μM TrxR and 1 mM NADPH. Compounds were diluted in HE buffer and added to the wells as 20 μL aliquots, and TrxR was then added,also as 20 μL aliquots in HE buffer. To start the reaction NADPH and DTNB were added as a 20 μL aliquot in HE buffer and the plate was moved to the plate reader which had been preheated to 37 ° C. The optical density at 405 nm was measured every 10 s and initial reaction rates were measured.

[6] = test system: MDA-MB-231 cells; assay: Antiproliferative assay, MDA-MB-231 cells; type: cell-based, human
Source text: MDA-MB-231 cells, which were also derived from an adenocarcinoma of the breast, are less differentiated than the MCF-7 cells and fail to express functional p53 or estrogen receptors. This class of tumor cells contains important targets for new therapies, because loss of estrogen receptor expression is associated with poor patient prognosis. (Osborne, C. K. Breast Cane. Res. Treatm. 1998, 51, 227).
The inventors extrapolated to determine the IC50 for compounds with little cytotoxicity at 30,μM, the highest concentration tested. […] The enhanced sensitivity of MCF-7 to these compounds may be due to the expression of p53 in these cells.
(§1) Two compounds, 24 referred to herein as SR-4 and 27 referred to herein as SR-7, were examined in greater detail as to their effects on biological activity. The proliferation of MCF-7, MDA-MB-231 and SV40 transformed mouse embryonic fibroblasts was measured by a previously described colorimetric assay (Wipf P, Jung J-K, Rodriguez S, Lazo JS Synthesis and biological evaluation of Deoxypreussomerin A and Palmarumycin CP 1 and related naphthoquinone spiroketals. Tetrahedron 57:283-296, 2001 and Vogt A, Rice RL, Settineri CE, Yokokawa F, Yokokawa S, Wipf P and Lazo JS (1998) Disruption of insulin-like growth factor-I signaling and down-regulation of Cdc2 by SC-ααδ9, a novel small molecule antisignaling agent identified in a targeted array library. J Pharmacol Exptl Therap 287:806-813.). Briefly, the inventors seeded 4,000-6,000 cells per well in microtiter plates. Cells were allowed to attach overnight and treated with vehicle or compounds for 72 h, after which the medium was replaced with serum free medium containing 0.1% 3-[4,5-dimethylthiazol-2-yl]-2,5-diphenyl tetrazolium bromide. Plates were incubated for 3 hours in the dark and total cell number was determined by spectrophotometrically at 540 nm as previously described (Vogt A, Rice RL, Settineri CE, Yokokawa F, Yokokawa S, Wipf P and Lazo JS (1998) Disruption of insulin-like growth factor-1 signaling and down-regulation of Cdc2 by SC-ααδ9, a novel small molecule antisignaling agent identified in a targeted array library. J Pharmacol Exptl Therap 287:806-813.). […] Cells were maintained in RPMI 1640 medium containing 10% fetal bovine serum and the paclitaxel-resistant cells also contained 17 nM paclitaxel and 10 μM verapamil. Cells were plated (2,000/well) in 96-well plates and allowed to attach and grow for 72 hours (paclitaxel and verapamil were removed from resistant cell medium two weeks prior to this plating). They were then treated with 0.5% DMSO vehicle control or 0.08-10 μM compound. The number of cells was determined spectrophotometrically at 490 nm minus absorbance at 630 nm after exposure to 3-(4,5-dimethylthiazol-2-yl)-5-(3-carboxymethoxyphenyl)-2-(4-sulfophenyl)-2H-tetrazolium and N-methyldibenzopyurazine methyl sulfate.
Because of the potential importance of the tumor suppressor gene p53 and the estrogen receptor in controlling the cellular response to cytotoxic agents, the inventors also examined the sensitivity of MDA-MB-231 cells, which lack functional p53 and estrogen receptors. […] As might be expected, these p53 and estrogen receptor deficient cells were generally less sensitive to both natural products and analogs when compared to MCF-7 cells.

[7] = test system: mouse embryonic fibroblasts transformed with SV40 large T antigen; assay: Proliferation of SV40 transformed mouse embryonic fibroblasts; type: cell-based; conditions: 10 μM
Procedure: as §1, with “Cells were plated (2,000/well) in 96-well plates and allowed to attach and grow for 72 hours (paclitaxel and verapamil were removed from resistant cell medium two weeks prior to this plating). They were then treated with 0.5% DMSO vehicle control or 0.08-10 μM compound.” left out, “sulfate. […]” for “sulfate.”

[8] = test system: recombinant Cdc25; assay: In vitro inhibition of recombinant Cdc25; type: biochemical; conditions: 30 μM, data not shown
[9] = target: VHR (Homo sapiens, UniProt P51452); assay: In vitro inhibition of VHR; type: biochemical; conditions: 30 μM, data not shown
Chain of VHR (P51452 whole entry, species assumed): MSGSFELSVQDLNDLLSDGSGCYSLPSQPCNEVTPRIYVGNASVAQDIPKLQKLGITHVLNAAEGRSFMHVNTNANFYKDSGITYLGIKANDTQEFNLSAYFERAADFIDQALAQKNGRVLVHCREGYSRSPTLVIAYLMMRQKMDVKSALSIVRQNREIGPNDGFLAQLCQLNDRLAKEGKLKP

[10] = target: T3, PTPIB (Homo sapiens, UniProt P18031); assay: In vitro inhibition of PTPIB; type: biochemical; conditions: 30 μM, data not shown
T3 sequence (P18031 1-435): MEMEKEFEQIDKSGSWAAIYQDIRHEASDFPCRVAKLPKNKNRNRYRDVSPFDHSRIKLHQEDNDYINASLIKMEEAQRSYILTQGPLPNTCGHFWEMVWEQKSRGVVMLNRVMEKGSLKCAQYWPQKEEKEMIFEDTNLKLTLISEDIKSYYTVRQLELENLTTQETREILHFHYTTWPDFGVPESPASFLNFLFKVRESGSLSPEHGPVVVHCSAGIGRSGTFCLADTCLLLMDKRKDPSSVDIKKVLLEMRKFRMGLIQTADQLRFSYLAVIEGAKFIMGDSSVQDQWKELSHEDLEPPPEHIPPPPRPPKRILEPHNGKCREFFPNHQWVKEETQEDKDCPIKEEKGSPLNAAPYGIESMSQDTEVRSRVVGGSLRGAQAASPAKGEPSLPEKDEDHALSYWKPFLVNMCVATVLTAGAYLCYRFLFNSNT

In the case of `O=C1C=CC(=O)C23OC12C(=O)C1OC1C31Oc2cccc3cccc(c23)O1` (stereo not shown) [palmarumycin C9], the “germination and growth of garden cress” value [1] is listed as “completely inhibited germination and growth”.

In the case of `C[C@H]1CO[C@H]2C3=C(C(=O)C=CC3=O)[C@@H]3OC(=O)[C@H]4CC[C@@H]5[C@H]1CC[C@@]52[C@@H]43` [NSC401005], the IC50 [2] is given as 0.17 µM and the GI50 [3] is given as 21.5 µM.

For `O=C1C=CC(=O)[C@@]23O[C@@]12C(=O)C(Cl)=CC31Oc2cccc3cccc(c23)O1` [palmarumycin C4], the “germination and growth of garden cress” value [1] is listed as “completely inhibited germination and growth”.

In the case of `CC(=O)OC[C@H]1O[C@@H]([S-])[C@H](OC(C)=O)[C@@H](OC(C)=O)[C@@H]1OC(C)=O.CCP(CC)CC.[Au+]` [auranofin], the Ki [4] is given as 0.004 µM.

With `CC/C=C/CCOc1cccc2c1C(=O)C=CC21Oc2cccc3cccc(c23)O1` [SR-4, (E)-8-(hex-3-enyloxy)-1-oxo-1,4-dihydronaphthalene-4-spiro-2′-naphto [1″,8″-de][1′,3′] dioxin] the IC50 [5] was > 50 µM, the “enhanced sensitivity of MDA-MB-231 cells compared to MCF-7 cells” value [6] was “five fold enhanced sensitivity” and the “sensitivity of MDA-MB-231 cells, in words” value ([6]; 72 hours, FIG. 23 Panel B) was “less active”. The IC50 ([6]; Homo sapiens, MDA-MB-231, 72 hours, read-out: MDA-MB-231 50% cell growth inhibition) was 9.2 µM, the “growth inhibition at highest concentration tested” value [7] was “no significant inhibition” and the “inhibition of recombinant Cdc25 activity” value [8] was “no inhibition”. The “inhibition of VHR activity” value [9] was “no inhibition” and the “inhibition of PTPIB activity” value [10] was “no inhibition”.

— patent US6673937B2, “Syntheses and methods of use of new antimitotic agents” (The University of Pittsburgh, priority 2000, dated 2004)
